Experimental data: patent US20180055049A1, “USE OF PRO-[…] UK-2A FOR CONTROL OF BROWN ROT DIESEASE ON STONE AND POME FRUITS” (Dow AgroSciences LLC, priority 2016, published 2018)

Columns and labels:
Format in all cases: in vivo
[1] = system: Monilinia spp. (MONILA); test: Field trial 2: brown rot of flowers and branches, peaches, southern France; conditions: for % Incidence, Branches: Trial 2, branches, 22 DAA, untreated 30.60; for % Incidence, Flowers: Trial 2, flowers, 8 DAA, untreated 55.30
Method: (§1) A fungicidal treatment containing Compound I for use against brown rot diseases on stone fruits was carried out in three field trials. The first two trials were carried out in Italy and France in order to investigate the effectiveness of Compound 1 against brown rot of flowers. These two trials were designed as randomized complete block with four replications (plots respectively of 35 and 50 m^2) and were carried out in typical areas for apricot and peaches cultivation, respectively, in northeastern Italy and southern France. Trials were conducted under EPPO PP1/38(2), PP1/135(3), PP1/152(3), PP1/181(3), PP1/239(1) and related guidelines. Trials were sprayed three times during the flowering period, using a backpack mist blower equipment calibrated to apply product respectively at 600 and 700 L/ha of water volume. […] MONILA disease was evaluated on flowers on a sample of ten pre-marked branches per tree, aged one year. The number of infected flowers was counted and consequently the percent incidence was then calculated. A second assessment was then made on 50 small branches randomly selected in the two 2 central trees for each plot, counting the number of diseased small branches and then the % incidence was calculated.

[2] = system: Monilinia spp. (MONILA); test: Field trial 1: brown rot of flowers and branches, apricot, northeastern Italy; conditions: for % Incidence, Branches: Trial 1, branches, 24 DAA, untreated 23.50; for % Incidence, Flowers: Trial 1, flowers, 8 DAA, untreated 21.00
Method: as §1

[3] = system: Monilinia fructicola (MONIFC); test: Field trial 3: brown rot of fruits, peach, Ravenna, northeastern Italy; conditions: Trial 3, fruits, 200 g ai/Ha
Method: A third trial was conducted in Italy in order to investigate the effectiveness of Compound I against brown rot of fruits. This trial was designed as randomized complete block with four replications and plots of 49.5 m^2 and was carried out in a typical area for peach cultivation in the province of Ravenna in northeastern Italy. The trial was conducted under EPPO PP1/222(1), PP1/135(2), PP1/152(3), PP1/181(3), PP1/225(1), PP1/239(1) and related guidelines. Products were sprayed twice during fruit ripening respectively at BBCH 79-81 and 81-85 of plant grow stage using a self-propelled air-assisted multi plot sprayer designed for efficacy trials with four independent series of 8 nozzles (Albutz, ATR 80 Yellow) calibrated to apply a spray volume of 1,000 L/ha at a pressure of 450 KPa according to the orchard canopy.
The pathogen was certificated to be Monilinia fructicola (MONIFC) by means of an immunoassay followed by a PCR assay on material collected (mummies) from the trial. The brown rot damage at harvest was evaluated on l00 randomly picked fruits per plot. Visual healthy samples of 60 fruits per plot were placed in alveolus plates and kept for 5 days in cold storage. Afterwards the samples were maintained for 14 days at about 20° C. (shelf life period). Several assessments were made in order to check the development of disease during the shelf life simulation. […]

SMILES: COc1ccnc(C(=O)N[C@H]2COC(=O)[C@H](Cc3ccccc3)[C@@H](OC(=O)C(C)C)[C@H](C)OC2=O)c1OCOC(=O)C(C)C [Compound I]
- % Incidence, Branches ([1]; 75 g ai/Ha): 11.98%
- % Incidence, Branches ([1]; 100 g ai/Ha): 9.93%
- % Incidence, Branches ([1]; 150 g ai/Ha): 4.20%
- % Incidence, Flowers ([1]; 75 g ai/Ha): 24.00%
- % Incidence, Flowers ([1]; 100 g ai/Ha): 16.70%
- % Incidence, Flowers ([1]; 150 g ai/Ha): 15.40%
- % Incidence, Branches ([2]; 75 g ai/Ha): 22.50%
- % Incidence, Branches ([2]; 100 g ai/Ha): 24.50%
- % Incidence, Branches ([2]; 150 g ai/Ha): 11.00%
- % Incidence, Flowers ([2]; 75 g ai/Ha): 11.25%
- % Incidence, Flowers ([2]; 100 g ai/Ha): 4.75%
- % Incidence, Flowers ([2]; 150 g ai/Ha): 3.25%
- % Incidence, Fruits ([3]; 7 DAA, untreated 31.3): 15.0%
- % Incidence, Fruits ([3]; 26 DAA, untreated 32.5): 16.8%
